Measurements: patent US12441718B2, “Selective angiotensin II compounds” (VICORE PHARMA AB, priority 2021, dated 2025)
Read-outs that look alike come from different tables or passages of the source.

Legend:
[1] = target: CYP3A4 (Homo sapiens, UniProt P08684); test: CYP inhibition in human liver microsomes (Eurofins ITEMG232), midazolam substrate; assay type: in vitro ADME; design: isoform-specific substrates incubated with human liver microsomes; tissue Eurofins ITEMG232 (protocol number); host or cells: human liver microsomes; settings: human, probe midazolam, read-out: CYP3A4 midazolam Inh %
Sequence of CYP3A4 (P08684 whole entry, canonical isoform): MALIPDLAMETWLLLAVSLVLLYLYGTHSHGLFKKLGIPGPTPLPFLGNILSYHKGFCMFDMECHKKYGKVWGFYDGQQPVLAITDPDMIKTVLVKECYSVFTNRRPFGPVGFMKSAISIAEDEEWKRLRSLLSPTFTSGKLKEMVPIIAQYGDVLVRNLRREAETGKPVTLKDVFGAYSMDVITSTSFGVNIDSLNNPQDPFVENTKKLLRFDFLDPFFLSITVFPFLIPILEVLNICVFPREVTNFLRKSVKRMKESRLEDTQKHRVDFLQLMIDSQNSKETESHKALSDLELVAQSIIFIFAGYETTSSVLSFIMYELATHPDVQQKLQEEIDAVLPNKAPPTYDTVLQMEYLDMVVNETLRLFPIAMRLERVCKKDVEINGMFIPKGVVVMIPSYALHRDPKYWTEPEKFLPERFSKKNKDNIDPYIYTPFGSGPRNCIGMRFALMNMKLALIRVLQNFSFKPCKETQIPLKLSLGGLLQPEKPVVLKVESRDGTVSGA

[2] = target: T1, CYP2B6 (Homo sapiens, UniProt P20813); test: CYP inhibition in human liver microsomes (Eurofins ITEMG232); assay type: in vitro ADME; settings: probe bupropion, substrate bupropion, read-out: CYP2B6 Inh %
T1 construct: isoform-specific substrates incubated with human liver microsomes; tissue Eurofins ITEMG232 (protocol number); host or cells: human liver microsomes
T1 sequence (P20813 1-491): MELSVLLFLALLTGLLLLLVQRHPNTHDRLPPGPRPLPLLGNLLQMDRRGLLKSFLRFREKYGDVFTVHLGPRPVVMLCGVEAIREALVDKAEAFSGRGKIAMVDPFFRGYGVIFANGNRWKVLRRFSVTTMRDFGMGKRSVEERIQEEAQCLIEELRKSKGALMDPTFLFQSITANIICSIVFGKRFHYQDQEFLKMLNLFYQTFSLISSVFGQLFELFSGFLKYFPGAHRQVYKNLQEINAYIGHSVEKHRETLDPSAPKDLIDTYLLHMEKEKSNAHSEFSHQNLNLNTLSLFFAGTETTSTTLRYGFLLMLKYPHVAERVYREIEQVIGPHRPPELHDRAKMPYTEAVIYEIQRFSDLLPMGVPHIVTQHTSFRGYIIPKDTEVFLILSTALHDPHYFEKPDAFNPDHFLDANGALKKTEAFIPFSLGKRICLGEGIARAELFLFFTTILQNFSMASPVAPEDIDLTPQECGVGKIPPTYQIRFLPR

[3] = target: T2, CYP1A2 (Homo sapiens, UniProt P05177); test: in vitro; assay type: in vitro ADME; settings: human, microsomes, human liver microsomes, substrate phenacetin, read-out: CYP1A2 Inh %
T2 construct: isoform-specific substrates incubated with human liver microsomes; tissue Eurofins ITEMG232 (protocol number); host or cells: human liver microsomes
T2 sequence (P05177 whole entry, canonical isoform): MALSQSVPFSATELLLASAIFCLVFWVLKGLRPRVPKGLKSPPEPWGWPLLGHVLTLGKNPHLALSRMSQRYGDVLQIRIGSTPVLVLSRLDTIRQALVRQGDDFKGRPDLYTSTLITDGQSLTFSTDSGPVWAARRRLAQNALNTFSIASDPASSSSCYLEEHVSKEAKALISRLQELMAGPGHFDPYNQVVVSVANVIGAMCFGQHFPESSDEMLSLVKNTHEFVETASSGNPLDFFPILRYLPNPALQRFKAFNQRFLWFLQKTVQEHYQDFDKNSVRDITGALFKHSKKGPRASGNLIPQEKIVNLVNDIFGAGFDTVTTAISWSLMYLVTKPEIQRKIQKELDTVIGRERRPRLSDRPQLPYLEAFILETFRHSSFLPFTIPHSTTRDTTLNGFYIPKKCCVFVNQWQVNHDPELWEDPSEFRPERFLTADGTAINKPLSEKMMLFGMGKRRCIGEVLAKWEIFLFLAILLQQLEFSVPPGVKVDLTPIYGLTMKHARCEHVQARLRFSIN
Description: The following substrates were used; CYP1A phenacetin, CYP2B36 bupropion, CYP2C8 paclitaxel and amodiaquine, CYP2C9 diclofenac, CYP2C19 omeprazole, CYP2D6 dextromethorphan, CYP3A midazolam and testosterone.
At the end of the incubation, the formation of metabolite was monitored by HPLC-MS/MS as the peak area response.

[4] = system: CYP3A4&5; test: in vitro; settings: human, human liver microsomes, probe testosterone;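 further: Read-out is the metabolite generated from the probe substrate, quantified as HPLC-MS/MS peak area once incubation ends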
[5] = target: CYP2C9 (Homo sapiens, UniProt P11712); test: CYP inhibition in human liver microsomes (Eurofins ITEMG232); assay type: in vitro ADME; design: isoform-specific substrates incubated with human liver microsomes; tissue Eurofins ITEMG232 (protocol number); host or cells: human liver microsomes; settings: human, probe diclofenac, substrate diclofenac, read-out: CYP2C9 Inh %
Sequence of CYP2C9 (P11712 whole entry, canonical isoform): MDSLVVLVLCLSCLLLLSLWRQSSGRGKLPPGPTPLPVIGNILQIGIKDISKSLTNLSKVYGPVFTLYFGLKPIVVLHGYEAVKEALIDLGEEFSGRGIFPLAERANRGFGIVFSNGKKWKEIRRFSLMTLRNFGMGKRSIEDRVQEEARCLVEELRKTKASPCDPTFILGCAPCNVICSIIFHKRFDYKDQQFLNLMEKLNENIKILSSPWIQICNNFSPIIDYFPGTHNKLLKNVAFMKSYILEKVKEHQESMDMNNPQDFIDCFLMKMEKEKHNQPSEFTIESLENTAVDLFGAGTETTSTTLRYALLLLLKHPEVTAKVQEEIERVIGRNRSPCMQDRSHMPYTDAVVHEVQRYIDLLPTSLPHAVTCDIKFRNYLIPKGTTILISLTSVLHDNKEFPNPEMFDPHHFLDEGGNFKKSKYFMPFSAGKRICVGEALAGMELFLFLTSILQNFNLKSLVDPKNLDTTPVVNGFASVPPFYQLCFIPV

[6] = target: T3, CYP2C19 (Homo sapiens, UniProt P33261); test: as above; assay type: in vitro ADME; settings: human, probe omeprazole, substrate omeprazole, read-out: CYP2C19 Inh %
T3 construct: isoform-specific substrates incubated with human liver microsomes; tissue Eurofins ITEMG232 (protocol number); host or cells: human liver microsomes
T3 sequence (P33261 whole entry, canonical isoform): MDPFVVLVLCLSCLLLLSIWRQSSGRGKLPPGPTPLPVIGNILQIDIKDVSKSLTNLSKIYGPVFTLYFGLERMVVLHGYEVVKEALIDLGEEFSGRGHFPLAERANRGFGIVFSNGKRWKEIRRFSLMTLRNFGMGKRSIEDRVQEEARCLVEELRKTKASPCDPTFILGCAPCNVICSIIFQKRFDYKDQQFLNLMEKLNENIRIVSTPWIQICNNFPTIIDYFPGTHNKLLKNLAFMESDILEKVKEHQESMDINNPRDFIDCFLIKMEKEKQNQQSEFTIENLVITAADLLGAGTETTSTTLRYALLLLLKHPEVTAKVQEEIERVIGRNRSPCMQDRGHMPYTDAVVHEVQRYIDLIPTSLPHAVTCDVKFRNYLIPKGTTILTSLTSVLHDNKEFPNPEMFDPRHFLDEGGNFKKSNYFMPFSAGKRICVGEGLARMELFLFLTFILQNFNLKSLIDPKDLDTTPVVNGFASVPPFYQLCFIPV

[7] = target: T4, CYP2C8 (Homo sapiens, UniProt P10632); test: as above; assay type: in vitro ADME; settings: human, probe paclitaxel and amodiaquine, substrate paclitaxel and amodiaquine, read-out: CYP2C8 Inh %
T4 construct: isoform-specific substrates incubated with human liver microsomes; tissue Eurofins ITEMG232 (protocol number); host or cells: human liver microsomes
T4 sequence (P10632 1-490): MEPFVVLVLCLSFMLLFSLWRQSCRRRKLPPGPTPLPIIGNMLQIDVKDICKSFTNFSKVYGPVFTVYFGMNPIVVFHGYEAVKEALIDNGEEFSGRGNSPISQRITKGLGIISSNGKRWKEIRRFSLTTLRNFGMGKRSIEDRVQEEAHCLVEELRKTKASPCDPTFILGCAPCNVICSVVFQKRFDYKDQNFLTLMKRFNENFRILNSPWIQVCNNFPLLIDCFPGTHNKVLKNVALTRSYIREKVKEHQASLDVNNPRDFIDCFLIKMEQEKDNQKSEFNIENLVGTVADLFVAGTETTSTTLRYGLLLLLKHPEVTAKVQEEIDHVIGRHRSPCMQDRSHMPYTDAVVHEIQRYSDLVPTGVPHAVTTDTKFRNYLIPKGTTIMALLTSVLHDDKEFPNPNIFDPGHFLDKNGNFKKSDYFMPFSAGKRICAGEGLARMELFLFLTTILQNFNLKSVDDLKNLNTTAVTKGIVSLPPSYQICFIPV

[8] = target: T5, human recombinant AT2 receptor (Homo sapiens, UniProt P50052); test: Binding to AT2 receptor, radiometric scintillation assay (Eurofins ITEM26); settings: ligand 125I CGP 42112A, * rows = mean of runs; for Ki: seven-point dose-response curve; for IC50: test compounds at 1, 10, 100 and 1000 nM, read-out: AT2 GraFit IC50
T5 construct: purchased Eurofins ITEM26 (protocol number)
T5 sequence (P50052 1-363): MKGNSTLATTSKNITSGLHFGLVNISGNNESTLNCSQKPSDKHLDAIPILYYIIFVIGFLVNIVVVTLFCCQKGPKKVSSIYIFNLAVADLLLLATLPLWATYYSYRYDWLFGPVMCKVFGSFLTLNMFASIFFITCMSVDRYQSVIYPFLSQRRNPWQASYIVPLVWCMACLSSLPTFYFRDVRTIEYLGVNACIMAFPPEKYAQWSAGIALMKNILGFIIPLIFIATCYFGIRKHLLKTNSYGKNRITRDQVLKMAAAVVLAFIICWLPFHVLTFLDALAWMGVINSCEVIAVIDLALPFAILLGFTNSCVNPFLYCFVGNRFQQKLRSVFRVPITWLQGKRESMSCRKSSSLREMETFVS

[9] = Metabolic stability in pooled human liver microsomes; assay type: in vitro ADME; settings: human, pooled human liver microsomes, pooled human liver microsomes 0.5 mg/mL, 1 μM test compound, 37° C., * rows = mean of two runs
Description: Pooled human liver microsomes in PBS at a concentration of 0.5 mg/mL was incubated with or without 1 mM NADPH for 70 min at 37° C. Test compound was added after 10 minutes to a final concentration of 1 μM. Samples were withdrawn at 0, 5, 15 and 60 minutes and added to test tubes containing acetonitrile, to stop the reaction, and with terfenadine, used as internal standard. After centrifugation at 10 000×g for 5 minutes the supernatant was diluted 1:1 with 1% formic acid. Samples were separated on a reverse phase column and detected by triple quadrupole MSMS (Agilant model 6540). The concentration of the parent compound at the different time points was measured with an external standard curve using terfenadine as internal standard and the initial metabolic rate in the presence or absence of NADPH calculated.

[10] = target: T6, CYP2D6 (Homo sapiens, UniProt P10635); test: CYP inhibition in human liver microsomes (Eurofins ITEMG232); assay type: in vitro ADME; settings: probe dextromethorphan, substrate dextromethorphan, read-out: CYP2D6 Inh %
T6 construct: isoform-specific substrates incubated with human liver microsomes; tissue Eurofins ITEMG232 (protocol number); host or cells: human liver microsomes
T6 sequence (P10635 whole entry, canonical isoform): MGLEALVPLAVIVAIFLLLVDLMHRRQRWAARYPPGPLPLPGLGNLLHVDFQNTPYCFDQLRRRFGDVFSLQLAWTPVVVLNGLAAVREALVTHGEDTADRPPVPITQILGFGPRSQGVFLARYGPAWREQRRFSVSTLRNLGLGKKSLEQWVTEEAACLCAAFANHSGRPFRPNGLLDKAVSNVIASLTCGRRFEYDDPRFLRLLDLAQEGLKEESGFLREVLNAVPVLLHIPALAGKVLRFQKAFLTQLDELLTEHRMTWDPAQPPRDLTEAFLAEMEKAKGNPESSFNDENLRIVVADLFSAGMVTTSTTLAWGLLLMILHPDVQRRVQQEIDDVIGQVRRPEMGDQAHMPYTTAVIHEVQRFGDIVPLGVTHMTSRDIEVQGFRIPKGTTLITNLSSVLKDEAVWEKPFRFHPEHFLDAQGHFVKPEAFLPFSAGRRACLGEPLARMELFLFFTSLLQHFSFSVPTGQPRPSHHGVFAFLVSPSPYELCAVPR

[11] = with 1 mM NADPH, read-out: T1/2, + NaDPH
[12] = without NADPH, read-out: T1/2, no NaDPH

| inhibition at 10 µM [1] [%] | inhibition at 10 µM [2] [%] | inhibition at 10 µM [3] [%] | inhibition at 10 µM [4] [%] | inhibition at 10 µM [5] [%] | inhibition at 10 µM [6] [%] | inhibition at 10 µM [7] [%] | Ki [8] [nM] | IC50 [8] [nM] | half-life at 1 μM [9, 11] [h] | half-life at 1 μM [9, 12] [h] | inhibition at 10 µM [10] [%] | SMILES |
| --- | --- | --- | --- | --- | --- | --- | --- | --- | --- | --- | --- | --- |
| 32.1 | 58.3 | 37.7 | -17.5 | 87 | 55.3 | 93.2 | 1.5 | 3 | > 1 | > 1 | 31.9 | CC(C)Cc1ccc(S(=O)(=O)Nc2ncc(Cl)cn2)c(-c2ccc(Cn3ccnc3C(C)(C)C)c(F)c2)c1 [Example 10, 4′-((2-(tert-Butyl)-1H-imidazol-1-yl)methyl)-N-(5-chloropyrimidin-2-yl)-3′-fluoro-5-isobutyl-[1,1′-biphenyl]-2-sulfonamide] |
| 16.1 | 48 | 14.3 | -19.3 | 82 | 47.5 | 89.6 | 1.54 | 3.07 | > 1 | > 1 | 20 | CC(C)Cc1ccc(S(=O)(=O)Nc2ncc(Br)cn2)c(-c2ccc(Cn3ccnc3C(C)(C)C)c(F)c2)c1 [Example 11, N-(5-Bromopyrimidin-2-yl)-4′-((2-(tert-butyl)-1H-imidazol-1-yl)methyl)-3′-fluoro-5-isobutyl-[1,1′-biphenyl]-2-sulfonamide] |
| -48.7 | 30.4 | 19.8 | -2.8 | 50.9 | 52.1 | 71.3 | 22.9 | 45.8 | 0.567 | > 1 | 17.6 | Cc1nc(NS(=O)(=O)c2ccc(CC(C)C)cc2-c2ccc(Cn3ccnc3C(C)(C)C)cc2)oc1C [Example 13, 4′-((2-(tert-Butyl)-1H-imidazol-1-yl)methyl)-N-(4,5-dimethyloxazol-2-yl)-5-isobutyl-[1,1′-biphenyl]-2-sulfonamide] |
| 10.3 | 25.9 | 30 | 24.8 | 55.5 | 58.4 | 74.3 | 2.6 | 5.2 | 0.333 | > 1 | 24.6 | COc1ccc(NS(=O)(=O)c2ccc(CC(C)C)cc2-c2ccc(Cn3ccnc3C(C)(C)C)cc2)nn1 [Example 14, 4′-((2-(tert-Butyl)-1H-imidazol-1-yl)methyl)-5-isobutyl-N-(6-methoxypyridazin-3-yl)-[1,1′-biphenyl]-2-sulfonamide] |
| 45.8 | 37.9 | -6.4 | 26.4 | 76.8 | 60.2 | 59.1 | 1.35 | 2.7 | > 1 | > 1 | 6.8 | CC(C)Cc1ccc(S(=O)(=O)Nc2ncc(C(F)(F)F)cn2)c(-c2ccc(Cn3ccnc3C(C)(C)C)c(F)c2)c1 [Example 21, 4′-((2-(tert-Butyl)-1H-imidazol-1-yl)methyl)-3′-fluoro-5-isobutyl-N-(5-(trifluoromethyl)pyrimidin-2-yl)-[1,1′-biphenyl]-2-sulfonamide] |
| 55.8 | 5.7 | 6.6 | 39.7 | 42.9 | 63.5 | 24.6 | 0.32 | 0.64 | 0.233 | > 1 | 4.5 | COc1ccc(NS(=O)(=O)c2ccc(CC(C)C)cc2-c2ccc(Cn3ccnc3C(C)(C)C)c(F)c2)nn1 [Example 23, 4′-((2-(tert-Butyl)-1H-imidazol-1-yl)methyl)-3′-fluoro-5-isobutyl-N-(6-methoxypyridazin-3-yl)-[1,1′-biphenyl]-2-sulfonamide] |
| 65.1 | 19.4 | -5.4 | 57.3 | 80.7 | 65.8 | 40 | 75 | 150 | 0.1 | > 1 | 11.9 | COc1ncnc(OC)c1NS(=O)(=O)c1ccc(CC(C)C)cc1-c1ccc(Cn2ccnc2C(C)(C)C)c(F)c1 [Example 25, 4′-((2-(tert-Butyl)-1H-imidazol-1-yl)methyl)-N-(4,6-dimethoxypyrimidin-5-yl)-3′-fluoro-5-isobutyl-[1,1′-biphenyl]-2-sulfonamide] |
| 48.7 | 16.9 | 10.3 | 34.9 | 66.4 | 46.5 | 9.9 | 1.68 | 0.84 | 0.733 | > 1 | 44.1 | Cc1cnc(NS(=O)(=O)c2ccc(CC(C)C)cc2-c2ccc(Cn3ccnc3C(C)(C)C)c(F)c2)nc1 [Example 26, 4′-((2-(tert-Butyl)-1H-imidazol-1-yl)methyl)-3′-fluoro-5-isobutyl-N-(5-methylpyrimidin-2-yl)-[1,1′-biphenyl]-2-sulfonamide] |
